Data from PubChem BioAssay AID248 (DTP/NCI, 2004).
Values joined by “and” are separate entries in the source; they are usually repeats but may differ in a detail not shown here. Identical values can stand only once. Toxic doses and inconclusive results are not listed. No stated cut-off is given here; in the data, active means T/C of 150% or more; inactive means T/C below 125%.

System: L1210 leukemia ip in BDF1 mice, survival T/C
Assay: NCI In Vivo Anticancer Drug Screen. Data for tumor model L1210 Leukemia (intraperitoneal) in B6D2F1 (BDF1) mice
Conditions: endpoint: mean survival time, higher = longer survival
Procedure, shortened: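 Mice bearing the transplanted tumor received compound or vehicle. Survival of the treated group was divided by that of the vehicle-treated control group to give the ratio.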

[1] = dose: 100.0 mg/kg/injection, schedule: Q01DX001 (ip), vehicle: saline with Tween-80
[2] = dose: 100.0 mg/kg/injection, schedule: Q04DX002 (ip), vehicle: saline with Tween-80
[3] = dose: 200.0 mg/kg/injection, schedule: Q01DX001 (ip), vehicle: saline with Tween-80
[4] = dose: 200.0 mg/kg/injection, schedule: Q04DX002 (ip), vehicle: saline with Tween-80
[5] = dose: 400.0 mg/kg/injection, schedule: Q01DX001 (ip), vehicle: saline with Tween-80
[6] = dose: 400.0 mg/kg/injection, schedule: Q04DX002 (ip), vehicle: saline with Tween-80
[7] = dose: 100.0 mg/kg/injection, schedule: Q01DX009 (ip), vehicle: Klucel (hydroxypropylcellulose) (HPC)
[8] = dose: 100.0 mg/kg/injection, schedule: Q04DX003 (ip), vehicle: saline
[9] = dose: 200.0 mg/kg/injection, schedule: Q01DX009 (ip), vehicle: Klucel (hydroxypropylcellulose) (HPC)
[10] = dose: 200.0 mg/kg/injection, schedule: Q04DX003 (ip), vehicle: saline
[11] = dose: 400.0 mg/kg/injection, schedule: Q01DX009 (ip), vehicle: Klucel (hydroxypropylcellulose) (HPC)
[12] = dose: 400.0 mg/kg/injection, schedule: Q04DX003 (ip), vehicle: saline
[13] = dose: 100.0 mg/kg/injection, schedule: Q01DX001 (ip), vehicle: saline
[14] = dose: 100.0 mg/kg/injection, schedule: Q01DX001 (ip), vehicle: carboxymethylcellulose (CMC)
[15] = dose: 200.0 mg/kg/injection, schedule: Q01DX001 (ip), vehicle: carboxymethylcellulose (CMC)
[16] = dose: 100.0 mg/kg/injection, schedule: Q04DX002 (ip), vehicle: Klucel (hydroxypropylcellulose) (HPC)
[17] = dose: 200.0 mg/kg/injection, schedule: Q04DX002 (ip), vehicle: Klucel (hydroxypropylcellulose) (HPC)
[18] = dose: 400.0 mg/kg/injection, schedule: Q04DX002 (ip), vehicle: Klucel (hydroxypropylcellulose) (HPC)
[19] = dose: 400.0 mg/kg/injection, schedule: Q01DX001 (ip), vehicle: carboxymethylcellulose (CMC)
[20] = dose: 50.0 mg/kg/injection, schedule: Q01DX009 (ip), vehicle: saline with Tween-80
[21] = dose: 100.0 mg/kg/injection, schedule: Q01DX009 (ip), vehicle: saline with Tween-80
[22] = dose: 100.0 mg/kg/injection, schedule: Q04DX003 (ip), vehicle: saline with Tween-80

Measured: T/C

CSc1ccc(NC(=O)c2ccc(Cl)cc2Cl)cc1
inactive: [1] 89 % of control | dose: 100.0 mg/kg/injection, schedule: Q01DX009 (ip), vehicle: saline + alcohol 95 % of control and 108 % of control | [2] 96 % of control and 108 % of control | [3] 89 % of control | dose: 200.0 mg/kg/injection, schedule: Q01DX009 (ip), vehicle: saline + alcohol 97 % of control and 106 % of control | [4] 93 % of control and 97 % of control | [5] 90 % of control | [6] 93 % of control and 97 % of control

CCOC(=O)N(CC)c1ccccc1
inactive: [7] 103 % of control | [8] 88 % of control | [9] 107 % of control | [10] 101 % of control | [11] 102 % of control | [12] 98 % of control

c1cc[n+](Cc2nc3ccccc3[nH]2)cc1
inactive: [13] 102 % of control and 95 % of control

O=C(CCl)Nc1cc(Cl)ccc1N1CCCCC1
inactive: dose: 100.0 mg/kg/injection, schedule: Q01DX009 (ip), vehicle: acetone 100 % of control | dose: 200.0 mg/kg/injection, schedule: Q01DX009 (ip), vehicle: acetone 91 % of control | dose: 400.0 mg/kg/injection, schedule: Q01DX009 (ip), vehicle: acetone 91 % of control

Cc1cccc(/C=N/N(C)C(N)=S)n1
inactive: [14] 102 % of control | [15] 106 % of control

O=C1NC23CC=CCC12CCCCCC3 (centres undefined)
inactive: dose: 100.0 mg/kg/injection, schedule: Q04DX002 (ip), vehicle: other 93 % of control | dose: 200.0 mg/kg/injection, schedule: Q04DX002 (ip), vehicle: other 90 % of control | dose: 400.0 mg/kg/injection, schedule: Q04DX002 (ip), vehicle: other 86 % of control

O=C(Nc1ccccc1F)Oc1ccc(F)cc1
inactive: dose: 100.0 mg/kg/injection, schedule: Q01DX001 (ip), vehicle: Klucel (hydroxypropylcellulose) (HPC) 97 % of control | [7] 102 % of control and 91 % of control | [16] 101 % of control and 89 % of control | dose: 200.0 mg/kg/injection, schedule: Q01DX001 (ip), vehicle: Klucel (hydroxypropylcellulose) (HPC) 97 % of control | [9] 98 % of control and 109 % of control | [17] 96 % of control and 98 % of control | dose: 400.0 mg/kg/injection, schedule: Q01DX001 (ip), vehicle: Klucel (hydroxypropylcellulose) (HPC) 96 % of control | [11] 98 % of control and 107 % of control | [18] 101 % of control and 104 % of control

OC(c1ccccc1)(c1ccccc1)C(F)(Cl)Cl
inactive: [8] 101 % of control | [10] 94 % of control | [12] 90 % of control

COc1ccc(NC(=O)Nc2ccc(CCO)cc2)c(OC)c1
inactive: [16] 97 % of control | [17] 93 % of control | [18] 93 % of control

Nc1nc(N)c2[nH]c(CO)nc2n1
inactive: dose: 75.0 mg/kg/injection, schedule: Q01DX001 (ip), vehicle: carboxymethylcellulose (CMC) 110 % of control | dose: 150.0 mg/kg/injection, schedule: Q01DX001 (ip), vehicle: carboxymethylcellulose (CMC) 97 % of control | dose: 300.0 mg/kg/injection, schedule: Q01DX001 (ip), vehicle: carboxymethylcellulose (CMC) 105 % of control

CCN(CC)Cc1ccccc1COC(=O)c1cccc(C)c1
inactive: dose: 50.0 mg/kg/injection, schedule: Q04DX002 (ip), vehicle: saline 93 % of control | dose: 100.0 mg/kg/injection, schedule: Q04DX002 (ip), vehicle: saline 90 % of control | dose: 200.0 mg/kg/injection, schedule: Q04DX002 (ip), vehicle: saline 93 % of control

CCCCCCCCCCCCCCCCCC(CCCCCCCCCCCCCCCC)CCCCCCCCCCCCCCCC
inactive: [14] 96 % of control | [15] 102 % of control | [19] 91 % of control

CN1CCN(C(=O)Cc2c[nH]c3ccccc23)CC1
inactive: dose: 6.25 mg/kg/injection, schedule: Q01DX009 (ip), vehicle: saline with Tween-80 104 % of control | dose: 12.5 mg/kg/injection, schedule: Q01DX009 (ip), vehicle: saline with Tween-80 100 % of control | dose: 25.0 mg/kg/injection, schedule: Q01DX009 (ip), vehicle: saline with Tween-80 120 % of control and 91 % of control | dose: 25.0 mg/kg/injection, schedule: Q04DX003 (ip), vehicle: saline with Tween-80 100 % of control | [20] 95 % of control and 117 % of control | dose: 50.0 mg/kg/injection, schedule: Q04DX003 (ip), vehicle: saline with Tween-80 102 % of control | [21] 115 % of control and 88 % of control | [22] 103 % of control and 108 % of control

Cc1cc(NS(=O)(=O)c2ccc(N=Nc3c(N)n(C)c(=O)n(C)c3=O)cc2)nc(C)n1
inactive: [14] 89 % of control | [15] 104 % of control | [19] 101 % of control

Nc1ncnc2c1ncn2C1SC(CO)C(O)C1O (centres undefined)
inactive: dose: 50.0 mg/kg/injection, schedule: Q01DX001 (ip), vehicle: saline 93 % of control and 103 % of control | [13] 102 % of control and 105 % of control | dose: 100.0 mg/kg/injection, schedule: Q01DX005 (ip), vehicle: saline 108 % of control and 95 % of control | dose: 200.0 mg/kg/injection, schedule: Q01DX001 (ip), vehicle: saline 104 % of control and 100 % of control | dose: 200.0 mg/kg/injection, schedule: Q01DX005 (ip), vehicle: saline 109 % of control and 95 % of control

NC(N)=Nc1nc(N)nc(N)n1
inactive: [20] 108 % of control

COc1ccc(S(=O)(=O)F)cc1C(=O)O
inactive: [1] 100 % of control | [21] 100 % of control | [2] 90 % of control | [22] 94 % of control | [3] 92 % of control | dose: 200.0 mg/kg/injection, schedule: Q01DX009 (ip), vehicle: saline with Tween-80 100 % of control | [4] 113 % of control | dose: 200.0 mg/kg/injection, schedule: Q04DX003 (ip), vehicle: saline with Tween-80 97 % of control | [5] 94 % of control | [6] 86 % of control | dose: 400.0 mg/kg/injection, schedule: Q04DX003 (ip), vehicle: saline with Tween-80 88 % of control

CN=C(NC)c1ccc(NC(=O)c2ccc(C(=O)Nc3ccc(C(=NC)NC)cc3)c([N+](=O)[O-])c2)cc1
inactive: dose: 1.88 mg/kg/injection, schedule: Q01DX Z (ip), vehicle: saline 100 % of control | dose: 3.75 mg/kg/injection, schedule: Q01DX Z (ip), vehicle: saline 111 % of control | dose: 7.5 mg/kg/injection, schedule: Q01DX Z (ip), vehicle: saline 108 % of control

O=C(CSc1cc(-c2ccc(Cl)cc2)s[s+]1)c1ccc(Cl)cc1
inactive: [8] 102 % of control | [10] 98 % of control | [12] 98 % of control

CC(=O)OCCN1C(=O)c2ccccc2C1=O
inactive: dose: 100.0 mg/kg/injection, schedule: Q04DX003 (ip), vehicle: Klucel (hydroxypropylcellulose) (HPC) 104 % of control | dose: 200.0 mg/kg/injection, schedule: Q04DX003 (ip), vehicle: Klucel (hydroxypropylcellulose) (HPC) 117 % of control | dose: 400.0 mg/kg/injection, schedule: Q04DX003 (ip), vehicle: Klucel (hydroxypropylcellulose) (HPC) 101 % of control
